In US6972178B1, “Drug screening using a proline-rich nuclear receptor co-regulatory protein/nuclear receptor co-expression system” (City of Hope, priority 1999, dated 2005):

What was measured:
Experiment in all cases: Yeast two-hybrid assay (HIS3 / β-galactosidase reporter)
AR HBD = molecular target: T1, AR HBD (Homo sapiens, UniProt P10275); type: cell-based; details: 100 nM of dihydrotestosterone
T1 construct: fusion proteins of Gal4-DBD and HBDs of AR, GR, PR, TR, RAR, and RXR in pGBT9 vector; expressed in transfected cells; host or cells: yeast Y187 x CG1945 diploids; plasmid a gift of M. R. Stallcup
T1 sequence (P10275 669-900 limits assumed): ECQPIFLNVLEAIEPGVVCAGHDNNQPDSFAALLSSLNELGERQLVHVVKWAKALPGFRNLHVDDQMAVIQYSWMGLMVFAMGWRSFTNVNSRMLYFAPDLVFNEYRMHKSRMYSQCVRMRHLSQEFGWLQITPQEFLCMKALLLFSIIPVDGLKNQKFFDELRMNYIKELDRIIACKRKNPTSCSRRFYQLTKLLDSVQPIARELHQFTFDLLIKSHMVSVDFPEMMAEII
T1 sequence (Q12796 whole entry partner, the tested form may be a part): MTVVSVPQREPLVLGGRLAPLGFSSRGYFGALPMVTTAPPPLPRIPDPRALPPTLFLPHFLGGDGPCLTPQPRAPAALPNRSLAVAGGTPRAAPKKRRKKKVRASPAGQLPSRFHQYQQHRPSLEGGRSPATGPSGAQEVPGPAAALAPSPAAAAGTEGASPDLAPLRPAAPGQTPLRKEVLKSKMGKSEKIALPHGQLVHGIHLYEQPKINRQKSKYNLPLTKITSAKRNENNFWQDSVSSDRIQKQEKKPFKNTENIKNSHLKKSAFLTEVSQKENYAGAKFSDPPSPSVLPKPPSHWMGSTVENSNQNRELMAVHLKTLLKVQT
Method: (§1) The protein-protein interactions between the full-length PNRC or PNRC fragments and SF1, ERRα1, and several other nuclear receptors were analyzed by yeast two-hybrid assays. The yeast two-hybrid assay was used to test if PNRC also interacts with other members of the nuclear receptor superfamily. pGBT9-ERRα-1 yeast expression plasmid was prepared by inserting the PCR-amplified ERRA-1 coding region into pGBT9 through an EcoRI site. To construct the plasmid pGBT9-ER274-595, the coding sequence from amino acids 274 to 595 (LBD) of ERα was amplified by PCR with the sense primer 5′-[…]-3′ (SEQ ID NO:1) and antisense primer 5′-[…]-3′ (SEQ ID NO:2) and cloned into the EcoRI/,SalI site of the pGBT9 yeast expression plasmid. pSG5-GRIP1 and several yeast expression plasmids coding for fusion proteins of Gal4-DBD and HBDs of AR, GR, PR, TR, RAR, and RXR in pGBT9 vector were kindly provided by Dr. Michael R. Stallcup (University of Southern California, Los Angeles, Calif.) (Voegel et al., 1996; Hong et al., 1996; Ding et al., 1998). The yeast mating approach was used in yeast two-hybrid assays to study protein-protein interactions as described in Clontech's protocol. Briefly, pGBT9 (DNA-BD vector only), pGBT9/target plasnmids for SF1, ERRα1, and other HBDs of nuclear receptors, and DNA-BD/control plasmids (as negative control) were introduced into the reporter strain Y187, and the AD vector alone or wild type PNRC and its deleted fragments-containing pACT2 derivatives were used to transform yeast strain CG1945. The yeast mating was performed by picking one colony from each type and growing both colonies in liquid YPD medium with or without a proper ligand at the following concentrations: 100 nM of estradiol for ER; 10 μM of deoxycorticosterone for GR; 100 nM of dihydrotestosterone for AR; 500 nM of progesterone for PR; 10 μM of T3 for TR; 10 μM of all-trans-retinoic acid for RAR; and 10 μM of 9-cis-retinoic acid for RXR. The same amount of an aliquot of the mating culture was spread on both SD/-Leu/-Trp plates to select diploid strains bearing both plasmids and SD/-Leu/-Trp/-His/+3-AT plates to score the growth of the diploid cells that express the two interacting target proteins. The His3 positive colonies were further analyzed for β-galactosidase activity by liquid β-galactosidase activity measurement as essentially described in the protocol.
(§2) Yeast strains Y187 expressing the Gal4DB fusion to the nuclear receptors and CG1945expressing Gal4AD alone or Gal4AD-PNRC fusion protein were mated by co-culturing, and selected for the presence of both two-hybrid plasmids. The expression of interacting hybrid proteins in yeast diploids was analyzed to determine if there was induction of HIS3 expression as shown in FIG. 1A and LacZ expression as shown in FIGS. 1B and 1C. […] As shown in FIGS. 1A-C, PNRC also interacted specifically with all seven nuclear receptor HBDs, including ER, AR, GR, TR, PR, RAR and RXR, and these interactions were completely ligand-dependent. […] However, no interactions occurred either between PNRC and an irrelevant protein such as human lamin C protein or between nuclear receptors and Gal4activation domain alone.

ER (ERα LBD, aa 274-595) = molecular target: T2, ER (ERα LBD, aa 274-595) (Homo sapiens, UniProt P03372); type: cell-based; details: 100 nM of estradiol
T2 construct: expressed in transfected cells; host or cells: yeast Y187 x CG1945 diploids
T2 sequence (P03372 274-595): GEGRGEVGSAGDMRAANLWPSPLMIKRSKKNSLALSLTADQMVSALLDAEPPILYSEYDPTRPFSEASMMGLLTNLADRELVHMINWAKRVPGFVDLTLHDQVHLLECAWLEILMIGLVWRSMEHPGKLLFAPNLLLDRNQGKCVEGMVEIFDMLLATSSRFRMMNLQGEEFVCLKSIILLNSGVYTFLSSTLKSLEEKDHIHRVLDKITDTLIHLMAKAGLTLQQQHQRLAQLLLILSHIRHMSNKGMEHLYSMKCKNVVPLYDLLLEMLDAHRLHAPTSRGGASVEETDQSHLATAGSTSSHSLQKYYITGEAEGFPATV
T2 sequence (Q12796 whole entry partner, the tested form may be a part): as the sequence (Q12796 whole entry partner, the tested form may be a part) above
Method: as §1, §2

ERRα1 = molecular target: T3, ERRα1 (Homo sapiens, UniProt P11474); type: cell-based; details: no ligand
T3 construct: inserting the PCR-amplified ERRA-1 coding region into pGBT9 through an EcoRI site; expressed in transfected cells; host or cells: yeast Y187 x CG1945 diploids
T3 sequence (P11474 1-423): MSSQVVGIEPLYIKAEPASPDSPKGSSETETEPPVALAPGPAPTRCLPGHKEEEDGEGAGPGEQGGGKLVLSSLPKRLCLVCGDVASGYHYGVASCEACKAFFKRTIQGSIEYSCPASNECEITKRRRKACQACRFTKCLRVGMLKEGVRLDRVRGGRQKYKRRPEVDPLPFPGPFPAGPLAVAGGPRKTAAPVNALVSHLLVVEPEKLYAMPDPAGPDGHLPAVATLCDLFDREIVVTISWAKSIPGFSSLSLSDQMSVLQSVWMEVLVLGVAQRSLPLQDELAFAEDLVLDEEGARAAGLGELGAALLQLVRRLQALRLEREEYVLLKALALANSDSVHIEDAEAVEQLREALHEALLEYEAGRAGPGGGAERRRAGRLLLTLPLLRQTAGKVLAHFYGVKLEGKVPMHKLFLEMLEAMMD
Method: as §1, §2

GR HBD = type: cell-based; details: 10 μM of deoxycorticosterone
Method: as §1, §2

PR HBD = type: cell-based; details: 500 nM of progesterone
Chain of PR HBD (P06401 679-933 limits assumed): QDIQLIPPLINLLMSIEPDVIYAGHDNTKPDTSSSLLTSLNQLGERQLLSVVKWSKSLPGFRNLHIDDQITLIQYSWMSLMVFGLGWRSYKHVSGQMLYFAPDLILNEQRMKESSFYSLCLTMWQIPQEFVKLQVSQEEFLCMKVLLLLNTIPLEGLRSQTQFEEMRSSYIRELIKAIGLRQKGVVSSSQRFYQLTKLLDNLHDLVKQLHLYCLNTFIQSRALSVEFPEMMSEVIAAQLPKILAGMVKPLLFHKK
Method: as §1, §2

RAR HBD = type: cell-based; details: 10 μM of all-trans-retinoic acid
Method: as §1, §2

RXR HBD = type: cell-based; details: 10 μM of 9-cis-retinoic acid
Method: as §1, §2

TR HBD = type: cell-based; details: 10 μM of T3
Method: as §1, §2

SF1 = SF1 (Bos taurus, UniProt Q04752); type: cell-based, bovine; design: The coding region for the wild type bovine SF1 was first subcloned into a yeast expression vector, pGBT9; expressed in transfected cells; host or cells: yeast (Y187, or Y187 x CG1945 diploids); details: no ligand
Chain of SF1 (Q04752 whole entry): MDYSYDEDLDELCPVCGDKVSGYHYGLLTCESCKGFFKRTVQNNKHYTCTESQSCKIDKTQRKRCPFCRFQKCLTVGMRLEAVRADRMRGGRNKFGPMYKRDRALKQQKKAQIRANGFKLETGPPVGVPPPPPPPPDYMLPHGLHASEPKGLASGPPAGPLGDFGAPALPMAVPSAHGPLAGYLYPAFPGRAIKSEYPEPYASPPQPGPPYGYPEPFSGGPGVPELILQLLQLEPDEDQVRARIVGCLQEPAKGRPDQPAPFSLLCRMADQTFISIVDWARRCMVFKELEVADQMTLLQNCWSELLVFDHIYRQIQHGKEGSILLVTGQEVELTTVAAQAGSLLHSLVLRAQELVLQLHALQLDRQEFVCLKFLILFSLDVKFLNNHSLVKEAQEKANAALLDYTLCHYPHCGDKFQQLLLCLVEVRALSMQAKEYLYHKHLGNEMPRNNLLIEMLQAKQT
Method: as §1, §2

interaction with AR (AR HBD): only weak interactions were detected | interaction with ER (ER (ERα LBD, aa 274-595)): only weak interactions were detected | interaction with GR (GR HBD): only weak interactions were detected | interaction with PR (PR HBD): interacts strongly | interaction with RAR (RAR HBD): only weak interactions were detected | interaction with RXR (RXR HBD): interacts strongly | interaction with TR (TR HBD): interacts strongly
Substance: PNRC: proline-rich nuclear receptor co-regulatory protein, 327 aa, SEQ ID NO:8, nuclear receptor coactivator
interaction with ERRα1 (ERRα1): interacted with orphan receptors SF1 and ERRα1 in the absence of any added activator or ligand | interaction with SF1 (SF1): interacted with orphan receptors SF1 and ERRα1 in the absence of any added activator or ligand
